Tests used:
[1] = system: natural aging-induced menopausal animal model; assay: antidepressant efficacy verification experiment in natural aging-induced menopausal animal model (summary); assay type: in vivo; details: antidepressant refractory animal model
Text: Accordingly, the Salvia miltiorrhiza extract of the present disclosure may be administered to patients with resistance to benzodiazepine or imipramine, and may be used to treat depression that is resistant to the drug.

[2] = stability (content) of ingredients included in the Salvia miltiorrhiza extract on storage; assay type: physicochemical; details: for Content (mg/g) of ingredient after 5 days of storage at room temperature of extract: 5 days at room temperature; for Content (mg/g) of ingredient in Salvia miltiorrhiza extract: before storage
Experimental: When the Salvia miltiorrhiza extract was stored at 95° C. for 0 hour, 1 hour, 2 hours, 3 hours, 4 hours and 6 hours, in order to confirm whether the stability of 5 types of ingredients of which the female hormone regulatory ability has been confirmed in Example embodiment 2-1 above was maintained, the ingredient contents of the stored samples were analyzed by time. In addition, when the Salvia miltiorrhiza extract was stored at room temperature for 1 day, 2 days, 3 days, 4 days and 5 days, the stability of the ingredients was confirmed through analysis of the contents of 5 types of ingredients included in the Salvia miltiorrhiza extract.
In addition, results of comparing the content of each ingredient included in the Salvia miltiorrhiza extract at various concentrations (0, 50, 70, and 100% ethanol) and the content after 5 days of storage at room temperature were shown together in Table 1 below.

[3] = system: ER (female hormone receptor); assay: female hormone receptor (ER) expression in MCF-7 BUS cell line by real-time PCR; assay type: cell-based; details: each ingredient 10 μg/mL, 72 hours
Experimental: Ingredients included in the Salvia miltiorrhiza extract obtained in Example embodiment 1 were confirmed, and in ingredients cryptotanshinone, danshensu, isotanshinone, salvianolic acid B, and tanshinone IIA, female hormone regulating ability was confirmed. An MCF-7 BUS cell line used in the experiment was received from Tufts University in the United States, and incubated in a CO2 incubator maintained at 37° C. and 5% CO2 by using a Dulbecco modified eagle medium (DMEM) (Gibco, USA) added with 10% fetal bovine serum (Gibco, USA) and 1% penicillin/streptomycin (Gibco, USA).
In the experiment, in order to evaluate the female hormone regulatory ability, the sensitivity to estrogen, one of the female hormones, was measured using the MCF-7 BUS cell line, and first, the MCF-7 BUS cell line was dispensed at 1×10^5 cells/well in a 60 mm culture dish, and then incubated in a CO2 incubator maintained at 37° C. and 5% CO2.
After incubation for 24 hours, each ingredient was treated at a concentration of 10 μg/mL, and 17β-Estradiol (E2) was treated with 10^−10 M as a positive control.
At this time, each primer was prepared by Takara, and ER was prepared with Forward primer: […] […] A CT value obtained through RT-PCR was converted into ΔCT, and this ΔCT value was analyzed through a change rate of an experimental group with respect to the control group, which was illustrated in FIG. 1.

SMILES	Content (mg/g) of ingredient after 5 days of storage at room temperature of extract ([2]; extract made with 0% EtOH) [mg/g]	Content (mg/g) of ingredient in Salvia miltiorrhiza extract ([2]; extract made with 0% EtOH) [mg/g]	Content (mg/g) of ingredient after 5 days of storage at room temperature of extract ([2]; extract made with 50% EtOH) [mg/g]	Content (mg/g) of ingredient in Salvia miltiorrhiza extract ([2]; extract made with 50% EtOH) [mg/g]	Content (mg/g) of ingredient after 5 days of storage at room temperature of extract ([2]; extract made with 70% EtOH) [mg/g]	Content (mg/g) of ingredient in Salvia miltiorrhiza extract ([2]; extract made with 70% EtOH) [mg/g]	Content (mg/g) of ingredient after 5 days of storage at room temperature of extract ([2]; extract made with 100% EtOH) [mg/g]	Content (mg/g) of ingredient in Salvia miltiorrhiza extract ([2]; extract made with 100% EtOH) [mg/g]	antidepressant effect in natural aging-induced menopausal animal model [1]	female hormone receptor regulating effect (ER mRNA change rate, FIG. 1) [3]
CN(C)CCCN1c2ccccc2CCc2ccccc21 [imipramine]	–	–	–	–	–	–	–	–	insufficient antidepressant effect	–
Cc1coc2c1C(=O)c1ccc3c(C)cccc3c1C2=O [Isotanshinone]	0.99	2.22	5.62	12.31	12.11	14.23	10.33	12.22	–	–
Cc1coc2c1C(=O)C(=O)c1c-2ccc2c1CCCC2(C)C [Tanshinone IIA]	0.65	1.33	4.11	5.21	4.33	7.22	5.24	8.33	–	–

Second part, led by results:

Content (mg/g) of ingredient after 5 days of storage at room temperature of extract ([2]; extract made with 0% EtOH) [mg/g]	Content (mg/g) of ingredient in Salvia miltiorrhiza extract ([2]; extract made with 0% EtOH) [mg/g]	Content (mg/g) of ingredient after 5 days of storage at room temperature of extract ([2]; extract made with 50% EtOH) [mg/g]	Content (mg/g) of ingredient in Salvia miltiorrhiza extract ([2]; extract made with 50% EtOH) [mg/g]	Content (mg/g) of ingredient after 5 days of storage at room temperature of extract ([2]; extract made with 70% EtOH) [mg/g]	Content (mg/g) of ingredient in Salvia miltiorrhiza extract ([2]; extract made with 70% EtOH) [mg/g]	Content (mg/g) of ingredient after 5 days of storage at room temperature of extract ([2]; extract made with 100% EtOH) [mg/g]	Content (mg/g) of ingredient in Salvia miltiorrhiza extract ([2]; extract made with 100% EtOH) [mg/g]	SMILES	antidepressant effect in natural aging-induced menopausal animal model [1]	female hormone receptor regulating effect (ER mRNA change rate, FIG. 1) [3]
18.33	21.2	26.21	38.23	23.21	33.1	15.27	20.3	O=C(/C=C/c1ccc(O)c2c1[C@H](C(=O)O[C@H](Cc1ccc(O)c(O)c1)C(=O)O)[C@@H](c1ccc(O)c(O)c1)O2)O[C@H](Cc1ccc(O)c(O)c1)C(=O)O [Salvianolic acid B]	–	–
0.32	0.34	1.22	1.28	24.19	25.17	17.33	18.32	O=C(O)[C@H](O)Cc1ccc(O)c(O)c1 [Danshensu]	–	most remarkable female hormone receptor regulating effect

— patent publication US20230390352A1, “COMPOSITION COMPRISING SALVIA MILTIORRHIZA EXTRACT AS ACTIVE INGREDIENT FOR PREVENTION AND TREATMENT OF DEPRESSION IN MENOPAUSAL WOMEN” (UNDBIO.CO.,LTD, priority 2020, published 2023)
